How the values were obtained:
[1] = Cytotoxicity against human THP1 macrophages after 48 hrs by Alamar Blue assay; type: cell-based; settings: THP-1 macrophages
[2] = test system: Trypanosoma brucei rhodesiense; assay: Antitrypanosomal activity against blood stage of Trypanosoma brucei rhodesiense STIB 900 (S704) Tanzania after 70 hrs by Alamar Blue assay; type: functional; settings: STIB 900, 70 h
[3] = Selectivity index, ratio of GI50 for human THP1 macrophages to GI50 for blood stage of Trypanosoma brucei rhodesiense STIB 900

| SMILES | GI50 at 48 h [1] [µM] | GI50 [2] [µM] | RatioGI50 [3] |
| --- | --- | --- | --- |
| CC(C)(C)c1ccc2[nH]c3c(c2c1)CC(=O)Nc1ccc(C(=O)/C=C/c2ccccc2)cc1-3 | > 100 | 0.61 | >163.9 |
| COc1ccc(-c2ccc3c(c2)-c2[nH]c4ccc(C(C)(C)C)cc4c2CC(=O)N3)cc1 | > 100 | 0.72 | >138.9 |
| COc1cccc(-c2ccc3c(c2)-c2[nH]c4ccc(C(C)(C)C)cc4c2CC(=O)N3)c1 | > 100 | 1.6 | >62.5 |
| CN(C)c1cccc(-c2ccc3c(c2)-c2[nH]c4ccc(C(C)(C)C)cc4c2CC(=O)N3)c1 | 93.9 | 2.3 | 40.8 |
| CC(C)(C)c1ccc2[nH]c3c(c2c1)CC(=O)Nc1ccc(-c2ccc4c(c2)OCO4)cc1-3 | > 100 | 0.76 | >131.6 |
| CC(C)(C)c1ccc2[nH]c3c(c2c1)CC(=O)Nc1ccc(-c2ccc(N4CCOCC4)cc2)cc1-3 | 80 | 0.51 | 156.9 |
| CC(C)(C)c1ccc2[nH]c3c(c2c1)CC(=O)Nc1ccc(CCC(=O)c2ccccc2)cc1-3 | > 100 | 2.3 | >88.8 |
| CC(C)(C)c1ccc2[nH]c3c(c2c1)CC(=O)Nc1ccc(/C=C/C(=O)N2CCOCC2)cc1-3 | 13.7 | 3.9 | 3.5 |
| CC(C)(C)c1ccc2[nH]c3c(c2c1)CC(=O)Nc1ccc(/C=C/C(=O)N2CCCCC2)cc1-3 | 6.2 | 4.7 | 1.3 |
| CCN(CC)C(=O)/C=C/c1ccc2c(c1)-c1[nH]c3ccc(C(C)(C)C)cc3c1CC(=O)N2 | 4.1 | 1.1 | 3.7 |
| CC(C)(C)c1ccc2[nH]c3c(c2c1)CC(=O)Nc1ccc(/C=C/C(=O)NCc2ccccc2)cc1-3 | 0.93 | 3.5 | <1 |
| CN1CCN(C(=O)/C=C/c2ccc3c(c2)-c2[nH]c4ccc(C(C)(C)C)cc4c2CC(=O)N3)CC1 | 17.8 | 24.4 | <1 |
| CC(C)(C)c1ccc2[nH]c3c(c2c1)CC(=O)Nc1ccc(/C=C/C(=O)Nc2ccccc2)cc1-3 | 0.34 | 1.5 | <1 |
| CC(C)(C)c1ccc2[nH]c3c(c2c1)CC(=O)Nc1ccc(/C=C/C(=O)Nc2cccc(Cl)c2)cc1-3 | 0.85 | 1.6 | <1 |
| CC(C)(C)c1ccc2[nH]c3c(c2c1)CC(=O)Nc1ccc(/C=C/C(=O)Nc2ccc(Cl)cc2)cc1-3 | 0.47 | 2.5 | <1 |
| Cc1ccc(NC(=O)/C=C/c2ccc3c(c2)-c2[nH]c4ccc(C(C)(C)C)cc4c2CC(=O)N3)cc1 | 1.3 | 1.7 | <1 |

| SMILES | GI50 at 48 h [1] [µM] | GI50 [2] [µM] | RatioGI50 [3] |
| --- | --- | --- | --- |
| COc1ccc(NC(=O)/C=C/c2ccc3c(c2)-c2[nH]c4ccc(C(C)(C)C)cc4c2CC(=O)N3)cc1 | 0.36 | 1.5 | <1 |
| CC(C)(C)c1ccc2[nH]c3c(c2c1)CC(=O)Nc1ccc(-c2ccccc2)cc1-3 | > 100 | 1.8 | >55.6 |
| COCCc1ccc(OCc2cccc(-c3ccc4c(c3)-c3[nH]c5ccc(C(C)(C)C)cc5c3CC(=O)N4)c2)cc1 | 12.9 | 1.7 | 7.6 |
| CC(C)(C)c1ccc2[nH]c3c(c2c1)CC(=O)Nc1ccc(-c2ccc(C(F)(F)F)cc2)cc1-3 | 55.1 | 2.6 | 21.2 |
| CC(C)(C)c1ccc2[nH]c3c(c2c1)CC(=O)Nc1ccc(-c2ccc(OC(F)(F)F)cc2)cc1-3 | > 100 | 3 | >33.3 |
| CC(C)(C)c1ccc2[nH]c3c(c2c1)CC(=O)Nc1ccc(/C=C/C(=O)c2ccccc2)cc1-3 | 17.6 | 4 | 4.4 |
| COc1ccc(C(=O)/C=C/c2ccc3c(c2)-c2[nH]c4ccc(C(C)(C)C)cc4c2CC(=O)N3)cc1 | 32.6 | 12.2 | 2.7 |
| CC(C)(C)c1ccc2[nH]c3c(c2c1)CC(=O)Nc1ccc(/C=C/C(=O)c2ccc(Cl)cc2)cc1-3 | 40.8 | 18.3 | 2.2 |
| CC(C)(C)c1ccc2[nH]c3c(c2c1)CC(=O)Nc1ccc(/C=C/C(=O)c2ccco2)cc1-3 | 1.3 | 0.57 | 2.3 |
| CC(C)(C)c1ccc2[nH]c3c(c2c1)CC(=O)Nc1ccc(/C=C/C(=O)c2cccnc2)cc1-3 | 47.9 | 9 | 8.7 |
| COc1cc(C(=O)/C=C/c2ccc3c(c2)-c2[nH]c4ccc(C(C)(C)C)cc4c2CC(=O)N3)cc(OC)c1OC | 14.7 | 2.6 | 5.6 |
| COc1ccc(OC)c(C(=O)/C=C/c2ccc3c(c2)-c2[nH]c4ccc(C(C)(C)C)cc4c2CC(=O)N3)c1 | 2.2 | 1.2 | 1.8 |
| COc1ccc(C(=O)/C=C/c2ccc3c(c2)-c2[nH]c4ccc(C(C)(C)C)cc4c2CC(=O)N3)c(OC)c1 | 31.4 | 5.4 | 5.8 |
| COc1ccc(C(=O)/C=C/c2ccc3c(c2)-c2[nH]c4ccc(C(C)(C)C)cc4c2CC(=O)N3)cc1OC | 9.6 | 4.2 | 2.3 |
| CC(C)(C)c1ccc2[nH]c3c(c2c1)CC(=O)Nc1ccc(/C=C/C(=O)c2cccs2)cc1-3 | 3.7 | 1.1 | 3.4 |
| CC(C)(C)c1ccc2[nH]c3c(c2c1)CC(=O)Nc1ccc(/C=C/C(=O)c2ccc(O)cc2)cc1-3 | 72.6 | 7.4 | 9.8 |
